Measured values: US11179344B2, “Nanoparticle-based liver-targeting therapy” (Midatech Limited, priority 2017, dated 2021)
pIC50: −log10 of the molar value.

Experiments:
[1] = Pharmacokinetics and biodistribution of DM1, subcutaneous Hep3B xenograft model; format: in vivo, NOD/SCID mouse; conditions: no further decline at 48 hours, dosed article not stated
Procedure: DM1 tumour concentration (mean±SEM) is shown for MTC-100038-treated (equivalent DM1 dose 0.06 mg/kg) animals (left-hand bars) and free DM1-treated animals (also 0.06 mg/kg dose) (right-hand bars). Time points are 2 hours (solid fill), 24 hours (horizontal lines) and 48 hours (checked pattern).
The in vivo pharmacokinetics and biodistribution of DM1 was studied in the subcutaneous Hep3B human hepatocellular cancer xenograft model (Table 1). The concentration of gold and DM1 in liver and kidney samples was evaluated 2, 24 and 48 hours after the last drug administration.

[2] = tested on: HCC cell lines HEPG2 and HEP3B; assay: Cytotoxicity of gold nanoparticle constructs vs free DM1 (text values); format: cell-based, human; conditions: line for the value not stated
Excerpt: (§1) The cytotoxicity of gold nanoparticle constructs GalC2-PEG8COOH-GNP (parent, non-functionalised gold nanoparticle (MTC-100011)), and MTC-100038 were compared to free DM1 drug in the HCC cell lines HEPG2 and HEP3B.

BEL7404 = assay: In vitro cytotoxicity, BEL7404; format: cell-based
[3] = tested on: orthotopic Hep3B-Luc hepatocellular cancer xenograft; assay: Anti-tumour efficacy, orthotopic HEP3B xenograft model (bioluminescence); format: in vivo, BALB/c nude mice; conditions: for T/C (%) / Bioluminescence: day 21; for Bioluminescence: Mean
Procedure: The in vivo anti-tumour efficacy of MTC-100038 in an orthotopic hepatocellular cancer xenograft model in BALB/c nude mice was evaluated. Briefly, female BALB/c nude mice (18-23 g, n=10/group), were implanted with approximately 3×10^6 Hep3B-Luc cells mixed with BD Matrigel in 20 μL (PBS:Matrigel=1:1). Animals were selected and randomized (based on their bioluminescence density) on day 7 after tumour implantation to 6 groups using randomized block design based upon their bioluminescence.
The tumour bioluminescence was used for the calculation of T/C value (in percent), where T and C are the mean bioluminescence of the treated and control groups, respectively, on a given day. Statistical analysis of difference in bioluminescence among the groups and the analysis of drug interaction were conducted on the data obtained at the best therapeutic time point after the final dose (the 21st day after the start of treatment).
A one-way ANOVA was performed to compare bioluminescence among groups, and when a significant F-statistics (a ratio of treatment variance to the error variance) was obtained, comparisons between groups were carried out with Games-Howell test with p<0.05 statistically significant.

[4] = tested on: subcutaneous BEL7404 hepatocellular cancer xenograft; assay: Anti-tumour efficacy, subcutaneous BEL7404 xenograft model; format: in vivo, NOD/SCID mice; conditions: for T/C / Tumour size: day 13; for Tumour size: Mean ± SEM
Procedure: The in vivo anti-tumour efficacy of MTC-100038 in a subcutaneous BEL7404 hepatocellular cancer xenograft model in NOD/SCID mice was evaluated. Briefly NOD/SCID mice (18-22 g, n=10 per group) were implanted subcutaneously with BEL7404 tumour cells (3×10^6) in 0.1 ml of PBS for tumour development. Group/dosing assignment commenced when tumours reached a pre-determined volume of ˜200 mm^3 subcutaneous tumours.
Tumour size was measured twice weekly, and the volume was expressed in mm^3. The tumour size was then used for calculations of T/C values.

[5] = tested on: subcutaneous Hep3B hepatocellular cancer xenograft; assay: Anti-tumour efficacy, subcutaneous HEP3B xenograft model; format: in vivo, NOD/SCID mice; conditions: 0.1125 mg/kg i.v. QD×5, day 13
Procedure: The in vivo anti-tumour efficacy of MTC-100038 in a subcutaneous Hep3B hepatocellular cancer xenograft model in NOD/SCID mice was evaluated. Briefly NOD/SCID mice (18-22 g, n=10 per group) were implanted subcutaneously with HEP 3B hepatocellular cells (3×10^6) in 0.1 mL PBS for tumour development. Group/dosing assignment commenced when tumours reached a pre-determined volume of ˜200 mm^3 subcutaneous tumours (n=10 per group). Tumour size was measured twice weekly, and the volume was expressed in mm^3. The tumour size was then used for calculations of T/C values. The T/C value (in percent) is an indication of anti-tumour effectiveness (optimally, a test article is considered to have anti-tumour activity when T/C is 50% or less); T and C are the mean volumes of the treated and control groups, respectively, on a given day.

[6] = Tolerability (body weight change), mouse model with human HCC xenograft; format: in vivo; conditions: I.V., five consecutive days
Procedure: The animals in this case were a mouse model with a human HCC xenograft. Animals dosed intravenously (I.V.) for five consecutive days (shaded area left of dotted vertical line) at either a low dose of 0.15 mg/kg of DM1 alone (inverted triangles) or high dose of 0.45 mg/kg DM1 alone (diamonds) or MTC-100038 at equivalent DM1 doses low (circles) and high (squares). Percentage body weight change was calculated based on animal weight on the first day of dosing. Data points represent percent group mean change in body weight±SEM. Body weight change is positive in the MTC-100038 nanoparticle-treated animals, but negative (low dose) or fatal (high dose) in the free DM1-treated animals.

Hep3B cells = assay: In vitro cytotoxicity, Hep3B; format: cell-based, human
Excerpt: A lower bar height indicates higher cytotoxic potency.
as §1

[7] = tested on: human hepatocellular carcinoma cell line HepG2; assay: MTT cell viability assay, Pt / doxorubicin loaded nanoparticles vs free drug; conditions: concentration based on drug amount, FIG. 7: 72 h after treatment
Procedure: The human hepatocellular carcinoma cell line HepG2 was used in the assay.
HepG2 cells were grown in a T-75 flask. For the transfer of the cell the medium was removed from the flask and the cells were trypsinated for 5 minutes. The cells were collected in a Falcon tube and diluted with complete cell medium. The cell counting was conducted in a Neubauer chamber. A cell solution was prepared to seed 4000 cells per well (200 μL per well). The microtiter plate was incubated for 24 h at 37° C.
For each NP and drug, formulations in cell medium were prepared. The compounds were tested in different concentrations (0.01, 0.05, 0.2, 1, 5, 25 and 125 μM based on drug amount). For the treatment, the cell medium was removed from all wells and exchanged for drug formulations. 200 μl of treatments per triplicate was added to each well. The microtiter plates were incubated for 24 h, 48 h and 72 h at 37° C.
1.5 mL MTT solution (8.0 mg in 1.6 mL DMSO) was diluted with complete cell medium (phenol-red free). The treatment cell medium was removed from the microtiter plate, the wells were washed with 100 μL PBS and 100 μL of the MTT reactive solution was added to each well. After one hour incubation at 37° C. the MTT solution was removed and 100 μL DMSO was added to dissolve the formazan dye. Absorbance was measured at 570 nm.
Data were analysed using OriginPro8. The normalized data were plotted and the curve was fitted using a non-linear regression curve fit (sigmoidal dose-response curve with variable slope). The Absolute IC50 values were obtained by interpolation.

[8] = Tolerability (body weight change), Hep3B orthotopic xenograft model; format: in vivo, BALB/c nude mice; conditions: daily oral administration for 21 days
Procedure: The animals in this case were a mouse HCC model with a Hep3B orthotopic xenograft. MTC-100038, DM1, or vehicle were administered I.V. to BALB/c nude mice in 2×5 day cycles (shaded), whilst Sorafenib was administered by daily oral administration for 21 days (dashed line) at a dose of 60 mg/kg, which was the highest tolerated dose in this model. Percentage body weight change was calculated based on animal weight on the first day of dosing. Data points represent percent group mean change in body weight±SEM. Treatment groups were: Vehicle (black circles), Sorafenib 60 mg/kg (squares), free DM1 0.150 mg/kg (triangles), MTC-100038 0.225 mg/kg (green circles), MTC-100038 0.338 mg/kg (diamonds) and MTC-100038 0.450 mg/kg (inverted triangles).

HCC cells = assay: In vitro targeting of GNPs to HCC cells (counts per field); format: cell-based; conditions: relative to base GNP lacking the peptide
Excerpt: (SEQ ID NO: 1), via its N-terminus (approx. 4 peptide molecules per nanoparticle).
Several base/peptide targeted GNPs were screened in vitro. GNPs having a mixed corona comprising galactose-C2-SH (Gal-C2) ligands and HSPEG8COOH were synthesised according to methodology analogous to that described above in Examples 1 and 2, with however galactose-C2-SH replacing glucose-C2-SH and HSPEG8COOH (also abbreviated SH-EG8-COOH or SH—(OCH2CH2)8—COOH) replacing the amino linker NH2-EG6-SH.
The glypican-3 peptide described in U.S. Pat. No. 8,388,937B2 (the contents of which are expressly incorporated herein by reference)—see SEQ ID NO: 1 thereof, which has the amino acid sequence: […] (SEQ ID NO: 1) was linked to the terminal COOH group of a proportion of the HSPEG8COOH ligands via the N-terminus of said peptide. In a “high loading” GNP construct (see row 1 in the table below), approximately 4 peptides were linked per nanoparticle core. The “high loading” Au@Gal-C2:HSPEG8COOH:HSPEG8CONH[…] The “low loading” Au@Gal-C2:HSPEG8COOH:HSPEG8CONH[…]

[9] = 0.15 mg/kg i.v. QD×5 (D0-4) + QD×5 (D8-12)

## COc1cc2cc(c1Cl)N(C)C(=O)C[C@H](OC(=O)[C@H](C)N(C)C(=O)CCS)[C@]1(C)O[C@H]1[C@H](C)[C@@H]1C[C@@](O)(NC(=O)O1)[C@H](OC)/C=C/C=C(\C)C2 [DM1, maytansinoid DM1]
[1]
  decline of DM1 concentration in the tumour between 2 and 24 hours: about 40%
[2]
  pIC50: 8.38
BEL7404
  pIC50: 8.05
[3]; 0.15 mg/kg
  anti-tumour activity compared with vehicle group: no anti-tumour activity
[3]; [9]
  T/C (%): 83.4%
  Bioluminescence: 1.21E+10 photons/s
[4]; 0.15 mg/kg
  anti-tumour activity compared to vehicle: no anti-tumour activity
[4]; [9]
  T/C: 113.2%
  Tumour size: 2656 ± 180 mm^3
[5]
  T/C: 78.9%
[5]; Mean ± SEM
  Tumour size: 1217 ± 254 mm^3
[6]; 0.15 mg/kg DM1 or equivalent DM1 dose
  body weight change, low dose: negative
[6]; 0.45 mg/kg DM1 or equivalent DM1 dose
  body weight change, high dose: fatal
Hep3B cells
  pIC50: 7.96

## COc1cccc2c1C(=O)c1c(O)c3c(c(O)c1C2=O)C[C@@](O)(C(=O)CO)C[C@@H]3O[C@H]1C[C@H](N)[C@H](O)[C@H](C)O1 [Doxorubicin, doxorubicin]
[7]; Homo sapiens
  pIC50: 7.22

## CNC(=O)c1cc(Oc2ccc(NC(=O)Nc3ccc(Cl)c(C(F)(F)F)c3)cc2)ccn1 [Sorafenib]
[8]
  highest tolerated dose: 60 mg/kg
[3]; 60 mg/kg
  anti-tumour activity compared with vehicle group: significant anti-tumour activity
[3]; 60 mg/kg p.o. QD×21
  T/C (%): 22.3%
  Bioluminescence: 3.24E+09 photons/s
[3]; 60 mg/kg p.o. QD×21, listed as sorafenib
  Bioluminescence: 3.24×10^9 photons/s
[4]; 60 mg/kg over 21 days
  anti-tumour activity compared to vehicle: significant tumour growth inhibition
[4]; 60 mg/kg p.o. QD×21
  T/C: 41.9%
  Tumour size: 984 ± 64 mm^3

## GNP-GalC2(50)-AL(50)-(Ac)YFLTTRQ
HCC cells
  Fold-targeting (over base particle): 5.0 fold
HCC cells; listed as Au@GalC2:AL:AL-(Ac)-YFLTTRQ
  Fold-targeting (over base particle): approximately 5 fold

## platinum-(IV)-succinate
[7]
  pIC50: 4.41
[7]; listed as Pt(IV)-succinate
  pIC50: 4.41
